The test system of series [1] is CCD-841CoN. The experiment in a line: Cytotoxicity against human CRL1790 cells assessed as inhibition of cell growth. It is filed as cell-based.
A short description of series [2]: Selectivity index, ratio of IC50 for human CRL1790 cells assessed as inhibition of cell growth to IC50 for human HCT116 cells assessed as inhibition of cell growth. The conditions noted are these: CRL1790 cells versus HCT116 cells, read-out: Ratio IC50. Format: toxicity.
For series [3], the system named is HCT-116. The experiment in a line: Cytotoxicity against human HCT116 cells assessed as inhibition of cell growth. It is filed as functional, cell-based.
Series [4] relates to HCT-116. Kind of series: Induction of mitochondrial membrane potential loss in human HCT116 cells at 2 times IC50. Format: functional, cell-based.
In series [5] the test system is HCT-116. The experiment in a line: Induction of apoptosis in human HCT116 cells assessed as apoptotic cells at 0.28 uM (reference value: 2.4 %). It is filed as functional.
In series [6] the test system is HCT-116. The experiment in a line: Cell cycle arrest in human HCT116 cells assessed as accumulation of diploid cells at 0.28 uM (reference value: 2.5 %). It is filed as functional.
Series [7] concerns HCT-116. The experiment in a line: Cell cycle arrest in human HCT116 cells assessed as accumulation at S phase at 0.28 uM (reference value: 18.4 %). Format: functional.
Series [8] deals with HCT-116. The experiment in a line: Induction of mitochondrial membrane potential loss in human HCT116 cells at IC50. It is filed as functional, cell-based.
Series [9] has as its system HCT-116. The experiment in a line: Cell cycle arrest in human HCT116 cells assessed as accumulation at G2/M phase at 0.28 uM (reference value: 29.4 %). It is filed as functional.
The subject of series [10] is HCT-116. Kind of series: Cell cycle arrest in human HCT116 cells assessed as accumulation at G0/G1 phase at 10.96 uM (reference value: 0.28 %). It is filed as functional.
The subject of series [11] is HCT-116. The experiment in a line: Induction of ROS generation in human HCT116 cells assessed as increase in ROS level at 2 times IC50. Format: functional, cell-based.
The subject of series [12] is HCT-116. Kind of series: Induction of ROS generation in human HCT116 cells assessed as increase in ROS level at IC50. It is filed as functional, cell-based.
The test system of series [13] is HCT-116. Kind of series: Cell cycle arrest in human HCT116 cells assessed as accumulation at G2/M phase at 10.96 uM (reference value: 29.4 %). Format: functional.
The subject of series [14] is HCT-116. Kind of series: Cell cycle arrest in human HCT116 cells assessed as accumulation at S phase at 10.96 uM (reference value: 18.4 %). It is filed as functional.
The test system of series [15] is HCT-116. The experiment in a line: Cell cycle arrest in human HCT116 cells assessed as accumulation of diploid cells at 10.96 uM (reference value: 2.5 %). Format: functional.
Series [16] has as its system HCT-116. The experiment in a line: Induction of apoptosis in human HCT116 cells assessed as apoptotic cells at 10.96 uM (reference value: 2.4 %). Format: functional.
Series [17] deals with HCT-116. Kind of series: Cell cycle arrest in human HCT116 cells assessed as accumulation at G0/G1 phase at 10.96 uM (reference value: 46.8 %). Format: functional.
The test system of series [18] is HCT-116. The experiment in a line: Potency index, ratio of 5-fluorouracil IC50 to test compound IC50 for human HCT116 cells assessed as inhibition of cell growth. It is filed as functional.
Series [19] concerns HCT-116. The experiment in a line: Cell cycle arrest in human HCT116 cells assessed as accumulation at G0/G1 phase at 0.03 uM (reference value: 46.8 %). Format: functional.
Series [20] concerns HCT-116. The experiment in a line: Induction of apoptosis in human HCT116 cells assessed as apoptotic cells at 0.03 uM (reference value: 2.4 %). It is filed as functional.
In series [21] the test system is HCT-116. Kind of series: Cell cycle arrest in human HCT116 cells assessed as accumulation of diploid cells at 0.03 uM (reference value: 2.5 %). It is filed as functional.
Series [22] deals with HCT-116. Kind of series: Cell cycle arrest in human HCT116 cells assessed as accumulation at S phase at 0.03 uM (reference value: 18.4 %). It is filed as functional.
For series [23], the system named is HCT-116. Kind of series: Cell cycle arrest in human HCT116 cells assessed as accumulation at G2/M phase at 0.03 uM (reference value: 29.4 %). It is filed as functional.
The subject of series [24] is HCT-116. Kind of series: Cell cycle arrest in human HCT116 cells assessed as accumulation at G0/G1 phase at 0.23 uM (reference value: 46.8 %). Format: functional.
The subject of series [25] is HCT-116. The experiment in a line: Induction of apoptosis in human HCT116 cells assessed as apoptotic cells at 0.23 uM (reference value: 2.4 %). Format: functional.
The test system of series [26] is HCT-116. The experiment in a line: Cell cycle arrest in human HCT116 cells assessed as accumulation of diploid cells at 0.23 uM (reference value: 2.5 %). It is filed as functional.
Series [27] in a line: Stability of compound in mixture of DMSO and phosphate buffer at 37 degree C incubated for 48 hrs by H-NMR spectroscopy. It is filed as physicochemical.
Series [28] relates to HCT-116. The experiment in a line: Cell cycle arrest in human HCT116 cells assessed as accumulation at G2/M phase at 0.23 uM (reference value: 29.4 %). Format: functional.
Series [29] deals with HCT-116. Kind of series: Cell cycle arrest in human HCT116 cells assessed as accumulation at S phase at 0.23 uM (reference value: 18.4 %). Format: functional.

Activity calls are given as the source filed them. No cut-off for these calls is given here. A value given as a limit tells only on which side of the number the result lay.

As a reminder, the IC50 is the midpoint of a concentration-inhibition curve. Consider `O=C1/C(=C/c2ccc3c(c2)OCO3)CN(C(=O)C(Cl)Cl)C/C1=C\c1ccc2c(c1)OCO2`, for which the IC50 was 21.1 µM in series [1] and 0.32 µM in series [3]. The selectivity ratio in series [2] came to 65.9.
Take `O=C1/C(=C/c2ccc(F)cc2)CN(C(=O)C(Cl)Cl)C/C1=C\c1ccc(F)cc1`: the results for the IC50 in series [1] and in series [3] were 14.6 µM and 0.05 µM, respectively. Besides, in series [2], the selectivity ratio came to 292.
The matching figures for `O=C1/C(=C/c2ccccc2F)CN(C(=O)C(Cl)Cl)C/C1=C\c1ccccc1F`: 11 µM, 0.21 µM and 52.4.
The matching figures for `O=C1/C(=C/c2ccc(F)c(F)c2)CN(C(=O)C(Cl)Cl)C/C1=C\c1ccc(F)c(F)c1`: 11.1 µM, 0.06 µM and 185.
For `CC(=O)N1C/C(=C\c2ccccc2)C(=O)/C(=C/c2ccccc2)C1`, the result in [4], in series [8], in series [11] and in [12] was Active. In addition, the values for the IC50 in [1] and in [3] were 20.8 µM and 0.28 µM, respectively. Also, the Activity in series [5] is reported as 3.5%; in series [6], 2.4%; in series [7], 18.3%; in [9], 30%; in series [10], 45.5%. In [2], the selectivity ratio is 74.3.
Regarding `CC(C)(C)C(=O)N1C/C(=C\c2ccc(OC(=O)C(Cl)Cl)cc2)C(=O)/C(=C/c2ccc(OC(=O)C(Cl)Cl)cc2)C1`, the values for the 50% inhibitory concentration (IC50) in [1] and in series [3] were 16.4 µM and 0.23 µM, respectively. Also, the selectivity ratio in series [2] was found to be 71.3.
The matching figures for `O=C1/C(=C/c2ccccc2)CNC/C1=C\c1ccccc1`: 9.45 µM, 3.5 µM and 2.7.
Turning to `CN(C)c1ccc(/C=C2\CN(C(=O)C(Cl)Cl)C/C(=C\c3ccc(N(C)C)cc3)C2=O)cc1`, the outcome in [4] and in series [8] was inactive. The Activity in series [13] is given as 29.9%; in series [14], 20.8%; in series [15], 1.4%; in series [16] it was 4.6%; in [17] it was 42.9%. Also, the IC50 in series [1] was 9.12 µM; in [3], 13.3 µM. The outcome in [11] and in series [12] was Active. Also, in [2], the selectivity ratio came out at 0.69.
Consider `O=C([O-])C(Cl)Cl.[Na+]` [SODIUM DICHLOROACETATE], for which the IC50 in [1] amounted to 12.5 µM; in series [3], 14.8 µM. Also, the selectivity ratio in series [2] came to 0.85.
The matching figures for `O=C1/C(=C/c2ccc(O)cc2)CN(C(=O)C(Cl)Cl)C/C1=C\c1ccc(O)cc1`: 13.8 µM, 3.85 µM and 3.58.
The matching figures for `COc1ccc(/C=C2\CN(C(=O)C(Cl)Cl)C/C(=C\c3ccc(OC)cc3)C2=O)cc1`: 13.2 µM, 0.27 µM and 48.9.
On to `O=c1[nH]cc(F)c(=O)[nH]1` [FLUOROURACIL], for which the result in series [4], in series [8], in series [11] and in [12] was Active. The IC50 in [1] is 18.7 µM; in series [3], 4.02 µM. For the same compound, the selectivity ratio in series [2] worked out at 4.65.
As to `Cc1ccc(/C=C2\CN(C(=O)C(Cl)Cl)C/C(=C\c3ccc(C)cc3)C2=O)cc1`, the “Ratio IC50” value in series [18] is above 100. Also, the concentration for half-maximal inhibition (IC50) amounted to 16.2 µM in series [1] and 0.03 µM in series [3]. The selectivity ratio in [2] turned out to be 540.
Regarding `O=C1/C(=C/c2ccc([N+](=O)[O-])cc2)CN(C(=O)C(Cl)Cl)C/C1=C\c1ccc([N+](=O)[O-])cc1`, the Activity in series [19] was determined as 44.4%; in [20], 3.6%; in series [21], 2.2%; in series [22] it was 21.4%; in [23], 27.8%. The “Ratio IC50” value in series [18] was above 100. Besides, the result in series [4], in series [8], in series [11] and in [12] was Active. Moreover, the IC50 in series [1] was 11.1 µM; in series [3], 0.03 µM. The selectivity ratio in [2] was found to be 370.
For the compound `O=C1/C(=C/c2ccc(Cl)c(Cl)c2)CN(C(=O)C(Cl)Cl)C/C1=C\c1ccc(Cl)c(Cl)c1`, the “Ratio IC50” value in series [18] is above 100. Besides, the IC50 amounted to 12.2 µM in series [1] and 0.04 µM in series [3]. The selectivity ratio in series [2] is 305.
With `COc1ccc(/C=C2\CN(C(=O)C(Cl)Cl)C/C(=C\c3ccc(OC)c(OC)c3)C2=O)cc1OC`, the figures for the IC50 in [1] and in series [3] were 10.6 µM and 0.11 µM, respectively. The selectivity ratio in series [2] was 96.4.
Turning to `COc1cc(/C=C2\CN(C(=O)C(Cl)Cl)C/C(=C\c3cc(OC)c(OC)c(OC)c3)C2=O)cc(OC)c1OC`, the “Ratio IC50” value in series [18] is recorded as above 100. In addition, the IC50 in series [1] stood at 15.1 µM; in series [3], 0.04 µM. For the same compound, in [2], the selectivity ratio is 378.
For `O=C1/C(=C/c2ccccc2)CN(C(=O)C(Cl)Cl)C/C1=C\c1ccccc1`, the Activity in [24] worked out at 44.7%; in series [25] it was 3.6%; in series [26] it was 1.8%; in series [28], 29.6%; in [29], 19.9%. Moreover, the outcome in series [4], in series [8], in series [11] and in [12] was Active. Also, the Stability result in series [27] is recorded as “Stable”. Further, the 50% inhibitory concentration (IC50) in series [1] turned out to be 12.5 µM; in series [3] it was 0.23 µM. Further, the selectivity ratio in series [2] was 54.4.
On to `O=C1/C(=C/c2ccc(Cl)cc2)CN(C(=O)C(Cl)Cl)C/C1=C\c1ccc(Cl)cc1`, for which the IC50 turned out to be 14.9 µM in series [1] and 0.13 µM in series [3]. Moreover, the selectivity ratio in series [2] came to 115.
The matching figures for `O=C1/C(=C/c2cccc(F)c2)CN(C(=O)C(Cl)Cl)C/C1=C\c1cccc(F)c1`: 14.8 µM, 0.11 µM and 135.

(Values after ChEMBL document CHEMBL4610019, “Novel hybrid molecules of 3,5-bis(benzylidene)-4-piperidones and dichloroacetic acid which demonstrate potent tumour-selective cytotoxicity” (Bioorg Med Chem Lett, 2020).)
